Test results taken from ChEMBL document CHEMBL3885861, “Open TG-GATES”.

Species on record: Rattus norvegicus
Test: Open TG-GATES - Regimen: Single
Assay type: toxicity, organism-based, Sprague-Dawley
Parameters: regimen Single, gender Male, age 6 weeks
Settings: in vivo, po, route gavage; for Eos / Fbg / Hb / Ht / Lym / MCH / MCHC / MCV / Mono / Neu / PT / Plat / RBC / Ret / APTT / Bas / WBC: tissue Blood; for KIDNEY_L / KIDNEY_R / KIDNEY_TOTAL: tissue Kidney; for LIVER: tissue Liver; for ALP / ALT / AST / BUN / CRE / Ca / DBIL / GLC / IP / K / LDH / Na / PL / RALB / TBIL / TC / TG / TP / gamma-GTP: tissue Plasma
[1] = 50 mg/kg, 3 h, dose level Middle
[2] = 50 mg/kg, 6 h, dose level Middle
[3] = 50 mg/kg, 9 h, dose level Middle
[4] = 50 mg/kg, 24 h, dose level Middle
[5] = 150 mg/kg, 3 h, dose level High
[6] = 150 mg/kg, 6 h, dose level High
[7] = 150 mg/kg, 9 h, dose level High
[8] = 150 mg/kg, 24 h, dose level High

## Oc1ncnc2[nH]ncc12 [ALLOPURINOL]
[1]
  Eos: 0.8%
  Fbg: 209.6 mg/dL
  Hb: 14 g/dL
  Ht: 41.6%
  Lym: 80%
  MCH: 21.9 pg
  MCHC: 33.7%
  MCV: 64.9 fL
  Mono: 8.2%
  Neu: 11.2%
  PT: 12.2 s
  Plat: 109.1 x10_4/uL
  RBC: 640.4 x10_4/ul
  Ret: 7.8%
  KIDNEY_L: 1 g
  KIDNEY_R: 1.1 g
  KIDNEY_TOTAL: 2.1 g
  LIVER: 9.9 g
  ALP: 877.8 IU/L
  ALT: 30.4 IU/L
  AST: 62.8 IU/L
  BUN: 15.6 mg/dL
  CRE: 0.6 mg/dL
  Ca: 11.2 mg/dL
  DBIL: 0.1 mg/dL
  GLC: 195.4 mg/dL
  IP: 9.9 mg/dL
  K: 4.6 meq/L
  LDH: 90.6 IU/L
  Na: 140 meq/L
  PL: 136.2 mg/dL
  RALB: 3.8 g/dL
  TBIL: 0.4 mg/dL
  TC: 80.4 mg/dL
  TG: 36.6 mg/dL
  TP: 5.6 g/dL
  gamma-GTP: 1 IU/L
[2]
  TERMINAL_BW: 208.2 g
  APTT: 16.7 s
  Bas: 0%
  Eos: 0.8%
  Fbg: 218.8 mg/dL
  Hb: 13.6 g/dL
  Ht: 40.6%
  Lym: 69%
  MCH: 21.4 pg
  MCHC: 33.5%
  MCV: 64 fL
  Mono: 9.2%
  Neu: 21.2%
  PT: 12.3 s
  Plat: 98.1 x10_4/uL
  RBC: 634 x10_4/ul
  Ret: 8.1%
  WBC: 122.8 x10_2/uL
  KIDNEY_L: 1.1 g
  KIDNEY_R: 1.2 g
  KIDNEY_TOTAL: 2.2 g
  LIVER: 9.5 g
  ALP: 927.4 IU/L
  ALT: 29.6 IU/L
  AST: 63.6 IU/L
  BUN: 15 mg/dL
  CRE: 0.5 mg/dL
  Ca: 11.6 mg/dL
  DBIL: 0.014 mg/dL
  GLC: 185 mg/dL
  K: 4.8 meq/L
  LDH: 81.2 IU/L
  Na: 140 meq/L
  PL: 130.6 mg/dL
  RALB: 3.7 g/dL
  TBIL: 0.4 mg/dL
  TC: 72.4 mg/dL
  TG: 58.8 mg/dL
  TP: 5.5 g/dL
  gamma-GTP: 1 IU/L
[3]
  TERMINAL_BW: 207.1 g
  APTT: 16.8 s
  Bas: 0%
  Eos: 1.2%
  Fbg: 222.6 mg/dL
  Hb: 13.7 g/dL
  Ht: 40.9%
  Lym: 67.2%
  MCH: 22 pg
  MCHC: 33.5%
  MCV: 65.9 fL
  Mono: 4.6%
  Neu: 27.4%
  PT: 12.5 s
  Plat: 108.6 x10_4/uL
  RBC: 622 x10_4/ul
  Ret: 8.9%
  WBC: 86.1 x10_2/uL
  KIDNEY_L: 1 g
  KIDNEY_R: 1 g
  KIDNEY_TOTAL: 2 g
  LIVER: 8.8 g
  ALP: 846.2 IU/L
  ALT: 29.4 IU/L
  AST: 60.2 IU/L
  BUN: 12.2 mg/dL
  CRE: 0.4 mg/dL
  DBIL: 0.044 mg/dL
  GLC: 178.4 mg/dL
  IP: 10.9 mg/dL
  K: 4.6 meq/L
  LDH: 80.8 IU/L
  Na: 139.2 meq/L
  PL: 147 mg/dL
  RALB: 3.6 g/dL
  TBIL: 0.4 mg/dL
  TC: 82.8 mg/dL
  TG: 30.2 mg/dL
  TP: 5.5 g/dL
  gamma-GTP: 1.4 IU/L
[4]
  TERMINAL_BW: 219.7 g
  APTT: 16.3 s
  Bas: 0%
  Eos: 1.2%
  Fbg: 229.6 mg/dL
  Hb: 13.6 g/dL
  Ht: 40.6%
  Lym: 81.2%
  MCH: 21.2 pg
  MCHC: 33.4%
  MCV: 63.5 fL
  Mono: 4.8%
  Neu: 13.2%
  PT: 12 s
  Plat: 98.8 x10_4/uL
  RBC: 641 x10_4/ul
  Ret: 6.9%
  WBC: 111.4 x10_2/uL
  KIDNEY_L: 1 g
  KIDNEY_R: 1 g
  KIDNEY_TOTAL: 2 g
  ALP: 1004.2 IU/L
  ALT: 32 IU/L
  AST: 63 IU/L
  BUN: 18.6 mg/dL
  CRE: 0.5 mg/dL
  Ca: 11 mg/dL
  DBIL: 0.022 mg/dL
  GLC: 183.4 mg/dL
  IP: 7.9 mg/dL
  K: 4.9 meq/L
  LDH: 88.4 IU/L
  Na: 139.2 meq/L
  PL: 162.4 mg/dL
  RALB: 3.8 g/dL
  TBIL: 0.3 mg/dL
  TC: 81.4 mg/dL
  TG: 120 mg/dL
  TP: 5.8 g/dL
  gamma-GTP: 1.6 IU/L
[5]
  TERMINAL_BW: 210.3 g
  APTT: 16.8 s
  Bas: 0%
  Eos: 0.8%
  Fbg: 220.2 mg/dL
  Hb: 13.9 g/dL
  Ht: 41.3%
  Lym: 75%
  MCH: 21.7 pg
  MCHC: 33.6%
  MCV: 64.6 fL
  Mono: 10%
  Neu: 14%
  PT: 12.4 s
  Plat: 112 x10_4/uL
  RBC: 640.6 x10_4/ul
  Ret: 8.1%
  WBC: 82 x10_2/uL
  KIDNEY_L: 1.1 g
  KIDNEY_R: 1.1 g
  KIDNEY_TOTAL: 2.2 g
  LIVER: 9.9 g
  ALP: 830.8 IU/L
  ALT: 34.6 IU/L
  AST: 63.8 IU/L
  BUN: 13 mg/dL
  CRE: 0.5 mg/dL
  Ca: 11.1 mg/dL
  DBIL: 0.046 mg/dL
  GLC: 191.8 mg/dL
  K: 4.7 meq/L
  LDH: 160.4 IU/L
  Na: 140.2 meq/L
  PL: 129.8 mg/dL
  RALB: 3.8 g/dL
  TBIL: 0.4 mg/dL
  TC: 75.8 mg/dL
  TG: 36.6 mg/dL
  TP: 5.6 g/dL
  gamma-GTP: 1.6 IU/L
[6]
  TERMINAL_BW: 208.4 g
  APTT: 16.2 s
  Bas: 0%
  Eos: 0.6%
  Fbg: 227.4 mg/dL
  Hb: 14.1 g/dL
  Ht: 42.2%
  Lym: 64.8%
  MCH: 21.8 pg
  MCHC: 33.5%
  MCV: 65.1 fL
  Mono: 6.6%
  Neu: 28%
  PT: 12.3 s
  RBC: 648.6 x10_4/ul
  Ret: 7.8%
  WBC: 115.3 x10_2/uL
  KIDNEY_L: 1 g
  KIDNEY_R: 1 g
  KIDNEY_TOTAL: 2.1 g
  LIVER: 9.5 g
  ALP: 1127.2 IU/L
  ALT: 29 IU/L
  AST: 61.6 IU/L
  BUN: 16.2 mg/dL
  CRE: 0.5 mg/dL
  Ca: 11.6 mg/dL
  DBIL: 0.016 mg/dL
  GLC: 191.6 mg/dL
  K: 4.9 meq/L
  LDH: 149 IU/L
  Na: 140.8 meq/L
  PL: 134.6 mg/dL
  RALB: 3.9 g/dL
  TBIL: 0.3 mg/dL
  TC: 72 mg/dL
  TG: 47 mg/dL
  TP: 5.7 g/dL
  gamma-GTP: 0.8 IU/L
[7]
  TERMINAL_BW: 205 g
  APTT: 16.9 s
  Bas: 0%
  Eos: 0.8%
  Fbg: 230.2 mg/dL
  Hb: 14.1 g/dL
  Ht: 42.1%
  Lym: 65.4%
  MCH: 21.4 pg
  MCHC: 33.6%
  MCV: 63.6 fL
  Mono: 5.4%
  Neu: 28.6%
  PT: 12.3 s
  Plat: 110.4 x10_4/uL
  RBC: 662.2 x10_4/ul
  Ret: 8.1%
  WBC: 82.6 x10_2/uL
  KIDNEY_L: 1.1 g
  KIDNEY_R: 1.1 g
  KIDNEY_TOTAL: 2.2 g
  LIVER: 9 g
  ALP: 832.2 IU/L
  ALT: 26 IU/L
  AST: 62.2 IU/L
  BUN: 18.8 mg/dL
  CRE: 0.5 mg/dL
  Ca: 11.1 mg/dL
  DBIL: 0.028 mg/dL
  GLC: 199.2 mg/dL
  IP: 11.6 mg/dL
  K: 4.7 meq/L
  LDH: 162.2 IU/L
  Na: 140.4 meq/L
  PL: 151 mg/dL
  RALB: 3.9 g/dL
  TBIL: 0.4 mg/dL
  TC: 80 mg/dL
  TG: 53 mg/dL
  TP: 5.9 g/dL
  gamma-GTP: 1.8 IU/L
[8]
  TERMINAL_BW: 220.7 g
  APTT: 16.2 s
  Bas: 0%
  Eos: 1.2%
  Fbg: 319.8 mg/dL
  Hb: 13.8 g/dL
  Ht: 41%
  Lym: 70.6%
  MCH: 21.9 pg
  MCHC: 33.6%
  MCV: 65.1 fL
  Mono: 9.8%
  Neu: 18.2%
  PT: 12.1 s
  Plat: 118.1 x10_4/uL
  RBC: 629.4 x10_4/ul
  Ret: 7.5%
  WBC: 99.2 x10_2/uL
  KIDNEY_L: 1.2 g
  KIDNEY_R: 1.3 g
  KIDNEY_TOTAL: 2.5 g
  ALP: 923.6 IU/L
  ALT: 28.4 IU/L
  AST: 61.8 IU/L
  BUN: 24.8 mg/dL
  CRE: 0.6 mg/dL
  Ca: 11.2 mg/dL
  DBIL: 0.048 mg/dL
  GLC: 196 mg/dL
  IP: 9 mg/dL
  K: 4.7 meq/L
  LDH: 157 IU/L
  Na: 139.8 meq/L
  PL: 159.6 mg/dL
  RALB: 3.8 g/dL
  TBIL: 0.3 mg/dL
  TC: 90.6 mg/dL
  TG: 87.2 mg/dL
  TP: 6 g/dL
  gamma-GTP: 2 IU/L
